Results: the NIST ThermoML archive (doi:10.1021/je700672f)
Numbers after ± are expanded uncertainties.

Experiments:
[1] = 101 kPa, Liquid
[2] = xn = mol fraction of the nth substance listed; settings: 101 kPa, Liquid, x2 = 0

OCCOCCO [diethylene glycol]
[1]
Settings	mass density [kg/m3]	viscosity [mPa·s]
283.15 K	1124.24 ± 0.73	–
288.15 K	1120.65 ± 0.72	–
293.15 K	1117.05 ± 0.71	36.43 ± 0.35
298.15 K	1113.47 ± 0.7	–
303.15 K	1109.88 ± 0.69	22.09 ± 0.22
308.15 K	1106.29 ± 0.68	–
313.15 K	1102.7 ± 0.67	14.56 ± 0.15
318.15 K	1099.11 ± 0.66	–
323.15 K	1095.51 ± 0.65	10.03 ± 0.11
328.15 K	1091.91 ± 0.64	–
333.15 K	1088.3 ± 0.63	7.22 ± 0.08
338.15 K	1084.68 ± 0.62	–
343.15 K	1081.05 ± 0.61	5.369 ± 0.063
348.15 K	1077.4 ± 0.6	–
353.15 K	1073.74 ± 0.59	4.139 ± 0.05

O [water] + OCCOCCO
[2]
Settings	mass density [kg/m3]	viscosity [mPa·s]
283.15 K	999.7 ± 0.19	–
293.15 K	–	1.013 ± 0.014
303.15 K	995.55 ± 0.2	0.811 ± 0.012
313.15 K	–	0.667 ± 0.011
323.15 K	988.03 ± 0.21	0.561 ± 0.011
328.15 K	985.69 ± 0.22	–
333.15 K	983.19 ± 0.23	0.477 ± 0.01
338.15 K	980.55 ± 0.23	–
343.15 K	977.76 ± 0.24	0.413 ± 0.01
348.15 K	974.84 ± 0.25	–
353.15 K	971.79 ± 0.25	0.362 ± 0.009
